Results published in patent US12122783B2, “Stable salt of 5,10-methylene-(6R)-tetrahydrofolic acid” (MERCK & CIE, priority 2013, dated 2024).
Structures can show the parent of a compound that is named as a salt.

Assay: Comparative long-term stability of sulfate salt, content by HPLC
Type: physicochemical
Procedure: In order to compare the long-term stabilities of (6R)-5,10-CH2-THF hemisulfate salt, the compounds of the invention, to the long-term stabilities of (6R)-5,10-CH2-THF sulfate salt prepared according to EP 0 537 492 B1, stability data for (6R)-5,10-CH2-THF sulfate salt has been generated at various temperatures and humidities. • (a) Stability of (6R)-5,10-CH2-THF sulfate
(6R)-5,10-CH2-THF sulfate salt was prepared according to literature procedures (EP 0 537 492 B1) and stored for 15 month at −20° C. Subsequently, samples of the product were stored at 5° C. resp. at 25° C. and 60% relative humidity resp. at 40° C. and 75% relative humidity. The content of (6R)-5,10-CH2-THF sulfate salt remaining in the sample was measured by HPLC at periodic intervals. The content of (6R)-5,10-CH2-THF sulfate was compared to the initial value at the time of preparation (% rel.).

Q: Which results are given for Nc1nc2c(c(=O)[nH]1)N1CN(c3ccc(C(=O)N[C@@H](CCC(=O)O)C(=O)O)cc3)C[C@H]1CN2 [(6R)-5,10-CH2-THF sulfate, 5,10-methylene-(6R)-tetrahydrofolic acid]?
A: (6R)-5,10-CH2-THF sulfate remaining (5 °C, 0 months, after 15 months at −20 °C, relative to value at preparation): 98.7 % rel.; (6R)-5,10-CH2-THF sulfate remaining (5 °C, 6 months, after 15 months at −20 °C, relative to value at preparation): 97.3 % rel.; (6R)-5,10-CH2-THF sulfate remaining (25 °C/60% rh, 0 months, after 15 months at −20 °C, relative to value at preparation): 98.7 % rel.; (6R)-5,10-CH2-THF sulfate remaining (25 °C/60% rh, 6 months, after 15 months at −20 °C, relative to value at preparation): 95.5 % rel.; (6R)-5,10-CH2-THF sulfate remaining (40 °C/75% rh, 0 months, after 15 months at −20 °C, relative to value at preparation): 98.7 % rel.; (6R)-5,10-CH2-THF sulfate remaining (40 °C/75% rh, 6 months, after 15 months at −20 °C, relative to value at preparation): 95.0 % rel.; (6R)-5,10-CH2-THF sulfate remaining (−20 °C, 0 months): 100.0 % rel.; (6R)-5,10-CH2-THF sulfate remaining (−20 °C, 15 months): 98.7 % rel.
